Measurements published in patent US20120004244A1, “Bis Aromatic Compounds for Use as LTC4 Synthase Inhibitors” (BIOLIPOX AB, priority 2009, published 2012).

molecular target: T1, Recombinant human LTC4 synthase (Homo sapiens, UniProt Q16873); assay: LTC4 synthase in vitro assay (LTA4 to LTC4, HTRF detection); format: biochemical; details: not given
T1 construct: made in house; host or cells: Pichia pastoris ('Piccia pastoralis' [sic])
T1 sequence (Q16873 1-150): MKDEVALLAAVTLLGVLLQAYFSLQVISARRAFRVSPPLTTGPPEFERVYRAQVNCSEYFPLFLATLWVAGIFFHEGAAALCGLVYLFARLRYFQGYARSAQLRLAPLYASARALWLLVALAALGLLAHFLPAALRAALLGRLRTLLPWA
Protocol: In the assay, LTC4 synthase catalyses the reaction where the substrate LTA4 is converted to LTC4. Recombinant human LTC4 synthase is expressed in Piccia pastoralis and the purified enzyme is dissolved in 25 mM tris-buffer pH 7.8 supplemented with 0.1 mM glutathione (GSH) and stored at −80° C. The assay is performed in phosphate buffered saline (PBS) pH 7.4 and 5 mM GSH in 384-well plates.
The following is added chronologically to each well:
1.48 μL LTC4 synthase in PBS with 5 mM GSH. The total protein concentration in this solution is 0.5 μg/mL. 2. 1 μL inhibitor in DMSO (final concentration 10 μM). 3. Incubation of the plate at room temperature for 10 min. 4. 1 μL LTA4 (final concentration 2.5 μM). 5. Incubation of the plate at room temperature for 5 min. 6. 10 μL of the incubation mixture is analysed using homogenous time resolved fluorescent (HTRF) detection.

Compared with `CN(c1ccc(Cl)cc1)c1ccc(C(=O)c2ccc(NCc3ccc(F)cc3)c(C(=O)O)c2)nc1` [2:10, 5-{5-[(4-Chlorophenyl)(methyl)amino]picolinoyl}-2-(4-fluorobenzylamino)benzoic acid], `CN(c1ccc(Cl)cc1)c1ccc(C(=O)c2ccc(NCc3ccc4c(c3)OCO4)c(C(=O)O)c2)nc1` [2:12, 5-{5-[(4-Chlorophenyl)(methyl)amino]picolinoyl}-2-(3,4-methylenedioxybenzylamino)benzoic acid] is 2.4-fold lower in IC50: 157 nM for the first, 66 nM for the second. The second is the more potent here.

Going from `CN(c1ccc(Cl)cc1)c1ccc(C(=O)c2ccc(NCc3ccc(Cl)cc3Cl)c(C(=O)O)c2)nc1` [2:11, 5-{5-[(4-Chlorophenyl)(methyl)amino]picolinoyl}-2-(2,4-dichlorobenzylamino)benzoic acid] to `CN(c1ccc(Cl)cc1)c1ccc(C(=O)c2ccc(NC(=O)c3cc(Cl)ccc3O)c(C(=O)O)c2)nc1` [3:2, 2-(5-Chloro-2-hydroxybenzamido)-5-{5-[(4-chlorophenyl)(methyl)amino]-picolinoyl}benzoic acid], the IC50 falls from 88 nM to 25 nM (3.5-fold).

Compared with `COc1ccc(Nc2ccc(C(=O)c3ccc(N(C)c4ccc(Cl)cc4)cn3)cc2C(=O)O)cc1` [2:13, 5-{5-[(4-Chlorophenyl)(methyl)amino]picolinoyl}-2-(4-methoxyphenylamino)benzoic acid], `COc1ccc(C(=O)Nc2ccc(C(=O)c3ccc(N(C)c4ccc(Cl)cc4)cn3)cc2C(=O)O)cc1` [3:4, 5-{5-[(4-Chlorophenyl)(methyl)amino]picolinoyl}-2-(4-methoxybenzamido)-benzoic acid] is 7-fold lower in IC50: 160 nM for the first, 23 nM for the second. The second is the more potent here.

Going from `COc1ccccc1Nc1ccc(C(=O)c2ccc(N(C)c3ccc(Cl)cc3)cn2)cc1C(=O)O` [2:14, 5-{5-[(4-Chlorophenyl)(methyl)amino]picolinoyl}-2-(2-methoxyphenylamino)benzoic acid] to `COc1ccccc1C(=O)Nc1ccc(C(=O)c2ccc(N(C)c3ccc(Cl)cc3)cn2)cc1C(=O)O` [3:5, 5-{5-[(4-Chlorophenyl)(methyl)amino]picolinoyl}-2-(2-methoxybenzamido)-benzoic acid], the IC50 falls from 68 nM to 32 nM (2.1-fold). The second is the more potent here.

Compared with `CN(c1ccc(Cl)cc1)c1ccc(C(=O)c2ccc(NC3CCC(F)(F)CC3)c(C(=O)O)c2)nc1` [2:15, 5-{5-[(4-Chlorophenyl)(methyl)amino]picolinoyl}-2-(4,4-difluorocyclohexylamino)benzoic acid], `CN(c1ccc(Cl)cc1)c1ccc(C(=O)c2ccc(NC3CCOCC3)c(C(=O)O)c2)nc1` [2:16, 5-{5-[(4-Chlorophenyl)(methyl)amino]picolinoyl}-2-(4-tetrahydropyranylamino)benzoic acid] is 1.8-fold higher in IC50: 184 nM for the first, 333 nM for the second. The first is the more potent here.

Going from `CN(c1ccc(Cl)cc1)c1ccc(C(=O)c2ccc(Nc3ccc(C(O)(C(F)(F)F)C(F)(F)F)cc3)c(C(=O)O)c2)nc1` [2:17, 5-{5-[(4-Chlorophenyl)(methyl)amino]picolinoyl}-2-[4-(1,1,1,3,3,3-hexafluoro-2-hydroxy-2-propyl)phenylamino]benzoic acid] to `CN(c1ccc(Cl)cc1)c1ccc(C(=O)c2ccc(NC(=O)c3ccc(C(F)(F)F)cc3)c(C(=O)O)c2)nc1` [3:1, 5-{5-[(4-Chlorophenyl)(methyl)amino]picolinoyl}-2-(4-trifluoromethylbenzamido)-benzoic acid], the IC50 falls from 138 nM to 33 nM (4.2-fold). The second is the more potent here.

`CN(c1ccc(Cl)cc1)c1ccc(C(=O)c2ccc(Nc3cccc(S(C)(=O)=O)c3)c(C(=O)O)c2)nc1` [2:18, 5-{5-[(4-Chlorophenyl)(methyl)amino]picolinoyl}-2-(3-methylsulfonylphenyl-amino)benzoic acid] and `CN(c1ccc(Cl)cc1)c1ccc(C(=O)c2ccc(Nc3ccccc3)c(C(=O)O)c2)nc1` [2:21, 5-{5-[(4-Chlorophenyl)(methyl)amino]picolinoyl}-2-phenylaminobenzoic acid] are within 1.5-fold of each other in IC50: 188 nM for the first, 139 nM for the second.

Going from `CN(c1ccc(Cl)cc1)c1ccc(C(=O)c2ccc(NC3CCSCC3)c(C(=O)O)c2)nc1` [2:19, 5-{5-[(4-Chlorophenyl)(methyl)amino]picolinoyl}-2-(4-tetrahydrothiopyranylamino)benzoic acid] to `CN(c1ccc(Cl)cc1)c1ccc(C(=O)c2ccc(NC3CCS(=O)(=O)CC3)c(C(=O)O)c2)nc1` [2:20, 5-{5-[(4-Chlorophenyl)(methyl)amino]picolinoyl}-2-(1,1-dioxotetrahydrothiopyran-4-ylamino)benzoic acid], the IC50 rises from 149 nM to 658 nM (4.4-fold).

Compared with `CN(c1ccc(Cl)cc1)c1ccc(C(=O)c2ccc(N3CCC(C(F)(F)F)CC3)c(C(=O)O)c2)nc1` [2:22, 5-{5-[(4-Chlorophenyl)(methyl)amino]picolinoyl}-2-(4-trifluoromethyl-1-piperidinyl)benzoic acid], `CN(c1ccc(Cl)cc1)c1ccc(C(=O)c2ccc(NC(=O)c3ccc(OC(F)(F)F)cc3)c(C(=O)O)c2)nc1` [3:11, 5-{5-[(4-Chlorophenyl)(methyl)amino]picolinoyl}-2-(4-trifluoromethoxy-benzamido)benzoic acid] is 45-fold lower in IC50: 2000 nM for the first, 44 nM for the second.

Compared with `CN(c1ccc(Cl)cc1)c1ccc(C(=O)c2ccc(NC(=O)c3ccccc3)c(C(=O)O)c2)nc1` [3:3, 2-Benzamido-5-{5-[(4-chlorophenyl)(methyl)amino]picolinoyl}benzoic acid], `CN(c1ccc(Cl)cc1)c1ccc(C(=O)c2ccc(NC(=O)c3ccccc3C#N)c(C(=O)O)c2)nc1` [3:20, 5-{5-[(4-Chlorophenyl)(methyl)amino]picolinoyl}-2-(2-cyanobenzamido)benzoic acid] is 88-fold higher in IC50: 34 nM for the first, 3000 nM for the second.

First: CN(c1ccc(Cl)cc1)c1ccc(C(=O)c2ccc(NC(=O)c3ccc4c(c3)OCO4)c(C(=O)O)c2)nc1 [3:6, 5-{5-[(4-Chlorophenyl)(methyl)amino]picolinoyl}-2-(3,4-methylenedioxy-benzamido)benzoic acid]
Second: CN(c1ccc(Cl)cc1)c1ccc(C(=O)c2ccc(NC(=O)c3ccc4c(c3)OCCO4)c(C(=O)O)c2)nc1 [3:19, 5-{5-[(4-Chlorophenyl)(methyl)amino]picolinoyl}-2-(3,4-ethylenedioxy-benzamido)benzoic acid]
The IC50 of the first is 1.5-fold lower: 11 nM for the first, 17 nM for the second. The first is the more potent here.

`COc1ccc(C(=O)Nc2ccc(C(=O)c3ccc(N(CC4CC4)c4ccc(Cl)cc4)cn3)cc2C(=O)O)cc1` [3:7, 5-{5-[(4-Chlorophenyl)(cyclopropylmethyl)amino]picolinoyl}-2-(4-methoxy-benzamido)benzoic acid] and `COc1ccccc1C(=O)Nc1ccc(C(=O)c2ccc(N(CC3CC3)c3ccc(Cl)cc3)cn2)cc1C(=O)O` [3:8, 5-{5-[(4-Chlorophenyl)(cyclopropylmethyl)amino]picolinoyl}-2-(2-methoxy-benzamido)benzoic acid] are within 1.5-fold of each other in IC50: 31 nM for the first, 40 nM for the second.

Compared with `O=C(Nc1ccc(C(=O)c2ccc(N(CC3CC3)c3ccc(Cl)cc3)cn2)cc1C(=O)O)c1ccc2c(c1)OCO2` [3:9, 5-{5-[(4-Chlorophenyl)(cyclopropylmethyl)amino]picolinoyl}-2-(3,4-methylene-dioxybenzamido)benzoic acid], `CN(c1ccc(Cl)cc1)c1ccc(C(=O)c2ccc(NC(=O)c3ccc4c(c3)OC(F)(F)O4)c(C(=O)O)c2)nc1` [3:17, 5-{5-[(4-Chlorophenyl)(methyl)amino]picolinoyl}-2-[3,4-(difluoromethylene-dioxy)benzamido]benzoic acid] is 1.8-fold higher in IC50: 21 nM for the first, 38 nM for the second.

`COc1cccc(C(=O)Nc2ccc(C(=O)c3ccc(N(C)c4ccc(Cl)cc4)cn3)cc2C(=O)O)c1` [3:10, 5-{5-[(4-Chlorophenyl)(methyl)amino]picolinoyl}-2-(3-methoxybenzamido)-benzoic acid] and `COc1ccc(C(=O)Nc2ccc(C(=O)c3ccc(N(C)c4ccc(Cl)cc4)cn3)cc2C(=O)O)c(OC)c1` [3:13, 5-{5-[(4-Chlorophenyl)(methyl)amino]picolinoyl}-2-(2,4-dimethoxy-benzamido)benzoic acid] are within 1.5-fold of each other in IC50: 24 nM for the first, 23 nM for the second.

`CN(c1ccc(Cl)cc1)c1ccc(C(=O)c2ccc(NC(=O)c3ccccc3OC(F)(F)F)c(C(=O)O)c2)nc1` [3:12, 5-{5-[(4-Chlorophenyl)(methyl)amino]picolinoyl}-2-(2-trifluoromethoxy-benzamido)benzoic acid] and `CN(c1ccc(Cl)cc1)c1ccc(C(=O)c2ccc(NC(=O)c3cccc4c3OC(F)(F)O4)c(C(=O)O)c2)nc1` [3:18, 5-{5-[(4-Chlorophenyl)(methyl)amino]picolinoyl}-2-[2,3-(difluoromethylene-dioxy)benzamido]benzoic acid] are within 1.5-fold of each other in IC50: 104 nM for the first, 112 nM for the second.

Compared with `CN(c1ccc(Cl)cc1)c1ccc(C(=O)c2ccc(NC(=O)c3ccc(S(C)(=O)=O)cc3)c(C(=O)O)c2)nc1` [3:14, 5-{5-[(4-Chlorophenyl)(methyl)amino]picolinoyl}-2-(4-methylsulfonyl-benzamido)benzoic acid], `CN(c1ccc(Cl)cc1)c1ccc(C(=O)c2ccc(NC(=O)c3ccc(S(=O)(=O)N(C)C)cc3)c(C(=O)O)c2)nc1` [3:15, 5-{5-[(4-Chlorophenyl)(methyl)amino]picolinoyl}-2-(4-dimethylsulfamoyl-benzamido)benzoic acid] is 1.6-fold lower in IC50: 67 nM for the first, 41 nM for the second. The second is the more potent here.

For `COc1cc(C(=O)Nc2ccc(C(=O)c3ccc(N(C)c4ccc(Cl)cc4)cn3)cc2C(=O)O)cc(OC)c1OC` [3:16, 5-{5-[(4-Chlorophenyl)(methyl)amino]picolinoyl}-2-(3,4,5-trimethoxybenz-amido)benzoic acid], the IC50 was 157 nM.

same assay, conditions: 5 min; total concentration of title compound in the assay 10 μM

`CN(c1ccc(Cl)cc1)c1ccc(C(=O)c2ccc(NC(=O)c3ccc(C(F)(F)F)cc3)c(C(=O)O)c2)nc1` [3:1, 5-{5-[(4-Chlorophenyl)(methyl)amino]picolinoyl}-2-(4-trifluoromethylbenzamido)-benzoic acid] and `CN(c1ccc(Cl)cc1)c1ccc(C(=O)c2ccc(NC(=O)c3cc(Cl)ccc3O)c(C(=O)O)c2)nc1` [3:2, 2-(5-Chloro-2-hydroxybenzamido)-5-{5-[(4-chlorophenyl)(methyl)amino]-picolinoyl}benzoic acid] are the same in inhibition at 10 µM: 100% for the first, 100% for the second.
